Data: patent US20190216761A1, “COMPOSITIONS COMPRISING 15-HEPE AND METHODS OF USING THE SAME” (Afimmune Limited, priority 2015, published 2019)
Marks after values point to notes of the source that are not given here.

What was measured:
[1] = system: rPPARδ; assay: PPAR agonist reporter assay (Gal4 hybrid receptor, luciferase); type: cell-based, rat
Method: (§1) This study utilized proprietary reporter cells expressing a hybrid receptor comprising the N-terminal Gal4 DNA binding domain fused to the ligand binding domain of the specific human nuclear receptor (hPPARα, hPPARδ, and hPPARγ) and rat nuclear receptor (rPPARα, rPPARδ, and rPPARγ). The reporter vectors used in this Example comprise the firefly luciferase gene functionally linked to the Gal4 upstream activation sequence.
Nuclear Receptor assay was performed by dispensing 100 μL of a suspension of Reporter Cells in Cell Recovery Medium (CRM) containing 10% charcoal stripped FBS into each well of a white 96-well plate. Test compounds were diluted using compound screening medium (CSM) containing 10% charcoal stripped FBS to generate “2×-concentration” treatment media. Immediately after this dilution step, 100 μL of each diluted 2×-concentration treatment medium was dispensed (in triplicate) into the Reporter Cell-containing assay wells.
After incubation at 37° C. for 24 hours, the treatment media was discarded. 100 μL of Luciferase Detection Reagent substrate was added to each well and RLUs were quantified from each well to determine nuclear receptor activities.

[2] = system: rPPARγ Reporter Cells; assay: Live cell multiplex assay; type: cell-based
Method: as §1
(§2) Nuclear Receptor assay was performed by suspending Reporter Cells in CRM containing 10% charcoal stripped FBS. 2×-EC80 concentrations of the appropriate reference agonist were then added to the Reporter Cell suspension, and 100 μL of the mixture dispensed into wells of a white 96-well plate. Test compounds were diluted using compound screening medium (CSM) containing 10% charcoal stripped FBS to generate “2×-concentration” treatment media. Immediately after this dilution step, 100 μL of each diluted 2×-concentration treatment medium was dispensed (in triplicate) into the Reporter Cell-containing assay wells.
(§3) After incubation at 37° C. for 24 hours, the treatment media was discarded. Each well was rinsed once with LCM Buffer; LCM substrate was then added. After incubation for 30 minutes at 37° C., fluorescence was measured to determine the relative number of live cells per assay well. LCM substrate was then discarded and 100 μL of Luciferase Detection Reagent substrate was added to each well. RLUs were quantified from each well to determine nuclear receptor activities.

[3] = system: hPPARα Reporter Cells; assay: Live cell multiplex assay; type: cell-based
Method: as §1, §2, §3

[4] = system: rPPARδ Reporter Cells; assay: Live cell multiplex assay; type: cell-based
Method: as §1, §2, §3

[5] = system: hPPARγ Reporter Cells; assay: Live cell multiplex assay; type: cell-based
Method: as §1, §2, §3

CC/C=C\C/C=C\C/C=C\C/C=C\C/C=C\CCCC(=O)OCC [EPA-EE, EPA ethyl ester, reference compound]
Fold-Activation (vs. 0.10% DMSO) rPPAR-δ ([1]; 137 nM): 1.3 fold | Fold-Activation (vs. 0.10% DMSO) rPPAR-δ ([1]; 412 nM): 1.3 fold | Fold-Activation (vs. 0.10% DMSO) rPPAR-δ ([1]; 1,235 nM): 1.2 fold | Fold-Activation (vs. 0.10% DMSO) rPPAR-δ ([1]; 3,704 nM): 1.5 fold | Fold-Activation (vs. 0.10% DMSO) rPPAR-δ ([1]; 11,111 nM): 1.4 fold | Fold-Activation (vs. 0.10% DMSO) rPPAR-δ ([1]; 33,333 nM): 1.5 fold | Fold-Activation (vs. 0.10% DMSO) rPPAR-δ ([1]; 100,000 nM): 2.0 fold | Fold-Activation (vs. 0.10% DMSO) rPPAR-δ ([1]; 300,000 nM): 3.6* fold | % Live cells vs. 0.10% DMSO, rPPAR-γ ([2]; 137 nM): 97% | % Live cells vs. 0.10% DMSO, rPPAR-γ ([2]; 412 nM): 101% | % Live cells vs. 0.10% DMSO, rPPAR-γ ([2]; 1,235 nM): 102% | % Live cells vs. 0.10% DMSO, rPPAR-γ ([2]; 3,704 nM): 101% | % Live cells vs. 0.10% DMSO, rPPAR-γ ([2]; 11,111 nM): 100% | % Live cells vs. 0.10% DMSO, rPPAR-γ ([2]; 33,333 nM): 101% | % Live cells vs. 0.10% DMSO, rPPAR-γ ([2]; 100,000 nM): 98% | % Live cells vs. 0.10% DMSO, rPPAR-γ ([2]; 300,000 nM): 102% | % Live cells vs. 0.10% DMSO, hPPAR-α ([3]; 137 nM): 99% | % Live cells vs. 0.10% DMSO, hPPAR-α ([3]; 412 nM): 93% | % Live cells vs. 0.10% DMSO, hPPAR-α ([3]; 1,235 nM): 113% | % Live cells vs. 0.10% DMSO, hPPAR-α ([3]; 3,704 nM): 112% | % Live cells vs. 0.10% DMSO, hPPAR-α ([3]; 11,111 nM): 116% | % Live cells vs. 0.10% DMSO, hPPAR-α ([3]; 33,333 nM): 112% | % Live cells vs. 0.10% DMSO, hPPAR-α ([3]; 100,000 nM): 96% | % Live cells vs. 0.10% DMSO, hPPAR-α ([3]; 300,000 nM): 80% | % Live cells vs. 0.10% DMSO, rPPAR-δ ([4]; 137 nM): 100% | % Live cells vs. 0.10% DMSO, rPPAR-δ ([4]; 412 nM): 94% | % Live cells vs. 0.10% DMSO, rPPAR-δ ([4]; 1,235 nM): 98% | % Live cells vs. 0.10% DMSO, rPPAR-δ ([4]; 3,704 nM): 95% | % Live cells vs. 0.10% DMSO, rPPAR-δ ([4]; 11,111 nM): 100% | % Live cells vs. 0.10% DMSO, rPPAR-δ ([4]; 33,333 nM): 99% | % Live cells vs. 0.10% DMSO, rPPAR-δ ([4]; 100,000 nM): 101% | % Live cells vs. 0.10% DMSO, rPPAR-δ ([4]; 300,000 nM): 102% | % Live cells vs. 0.10% DMSO, hPPAR-γ ([5]; 137 nM): 88% | % Live cells vs. 0.10% DMSO, hPPAR-γ ([5]; 412 nM): 99% | % Live cells vs. 0.10% DMSO, hPPAR-γ ([5]; 1,235 nM): 101% | % Live cells vs. 0.10% DMSO, hPPAR-γ ([5]; 3,704 nM): 101% | % Live cells vs. 0.10% DMSO, hPPAR-γ ([5]; 11,111 nM): 101% | % Live cells vs. 0.10% DMSO, hPPAR-γ ([5]; 33,333 nM): 102% | % Live cells vs. 0.10% DMSO, hPPAR-γ ([5]; 100,000 nM): 103% | % Live cells vs. 0.10% DMSO, hPPAR-γ ([5]; 300,000 nM): 92%
